# Laboratory results as given in ChEMBL document CHEMBL5226375, “Synthesis and Comprehensive in Vivo Activity Profiling of Olean-12-en-28-ol, 3β-Pentacosanoate in Experimental Autoimmune Encephalomyelitis: A Natural Remyelinating and Anti-Inflammatory Agent” (J Nat Prod, 2023).
# The source made the active and inactive calls. No cut-off for these calls is given here.
# What was measured:
# Mus musculus [1] = assay: Anti-inflammatory activity against MOG35-55-induced experimental autoimmune encephalomyelitis C57BL/6 mouse model assessed as methylation of CpG sites of IL18 gene promoter in brain at 600 mg/kg, ig for 14 days starting from 12th day of immunization by PCR analysis (reference value: 29.2 +/-8%); type: functional; details: time 14 day
# Mus musculus [2] = assay: Anti-inflammatory activity against MOG35-55-induced experimental autoimmune encephalomyelitis C57BL/6 mouse model assessed as fold change in YWHAH gene expression in brain at 300 mg/kg/day, ig for 14 days starting from 12th day of immunization by RT-qPCR analysis relative to control; type: functional; details: time 14 day
# Mus musculus [3] = assay: Anti-inflammatory activity against MOG35-55-induced experimental autoimmune encephalomyelitis C57BL/6 mouse model assessed as reduction in CXCL9 protein expression in brain at 300 to 600 mg/kg/day, ig for 14 days starting from 12th day of immunization by western blot analysis; type: functional, organism-based; details: dose 300-600 mg/kg/day, time 14.0 day
# Mus musculus [4] = assay: Anti-inflammatory activity against MOG35-55-induced experimental autoimmune encephalomyelitis C57BL/6 mouse model assessed as reduction in CCL5 protein expression in brain at 300 to 600 mg/kg/day, ig for 14 days starting from 12th day of immunization by western blot analysis; type: functional, organism-based; details: dose 300-600 mg/kg/day, time 14.0 day
# [5] = Toxicity in C57BL/6 mouse assessed as serum LDH activity at 600 mg/kg/day, ig for 14 days by colorimetric analysis (reference value: 5.96 +/-1.08 U/ml); type: organism-based; details: in vivo, po, 336 h, time 14 day
# Mus musculus [6] = assay: Anti-inflammatory activity against MOG35-55-induced experimental autoimmune encephalomyelitis C57BL/6 mouse model assessed as reduction in APP protein expression in brain at 300 to 600 mg/kg/day, ig for 14 days starting from 12th day of immunization by western blot analysis relative to control; type: functional; details: dose 300-600 mg/kg/day, time 14 day
# Mus musculus [7] = assay: Anti-inflammatory activity against MOG35-55-induced experimental autoimmune encephalomyelitis C57BL/6 mouse model assessed as fold change in TGFB1 gene expression in brain at 600 mg/kg/day, ig for 14 days starting from 12th day of immunization by RT-qPCR analysis relative to control; type: functional; details: time 14 day
# Mus musculus [8] = assay: Anti-inflammatory activity against MOG35-55-induced experimental autoimmune encephalomyelitis C57BL/6 mouse model assessed as increase in serum IL-4 level at 600 mg/kg/day, ig for 14 days starting from 12th day of immunization by ELISA; type: functional, organism-based; details: time 14.0 day
# Mus musculus [9] = assay: Anti-inflammatory activity against MOG35-55-induced experimental autoimmune encephalomyelitis C57BL/6 mouse model assessed as reduction in MMP9 protein expression in brain at 300 to 600 mg/kg/day, ig for 14 days starting from 12th day of immunization by western blot analysis relative to control; type: functional; details: dose 300-600 mg/kg/day, time 14 day
# Mus musculus [10] = assay: Anti-inflammatory activity against MOG35-55-induced experimental autoimmune encephalomyelitis C57BL/6 mouse model assessed as methylation of CpG sites of SOCS5 gene promoter in brain at 600 mg/kg, ig for 14 days starting from 12th day of immunization by PCR analysis (reference value: 10.6 +/-4%); type: functional; details: time 14 day
# Mus musculus [11] = assay: Anti-inflammatory activity against MOG35-55-induced experimental autoimmune encephalomyelitis C57BL/6 mouse model assessed as fold change in BCL2 gene expression in brain at 300 mg/kg/day, ig for 14 days starting from 12th day of immunization by RT-qPCR analysis relative to control; type: functional; details: time 14 day
# Mus musculus [12] = assay: Anti-inflammatory activity against MOG35-55-induced experimental autoimmune encephalomyelitis C57BL/6 mouse model assessed as fold change in CD4 gene expression in brain at 300 mg/kg/day, ig for 14 days starting from 12th day of immunization by RT-qPCR analysis relative to control; type: functional; details: time 14 day
# Mus musculus [13] = assay: Anti-inflammatory activity against MOG35-55-induced experimental autoimmune encephalomyelitis C57BL/6 mouse model assessed as reduction in serum monokines level by measuring reduction in IL-6 level at 0.3 mg/kg/day, ig for 14 days starting from 12th day of immunization by ELISA; type: functional, organism-based; details: time 14.0 day
# Mus musculus [14] = assay: Anti-inflammatory activity against MOG35-55-induced experimental autoimmune encephalomyelitis C57BL/6 mouse model assessed as fold change in IL6 gene expression in brain at 0.3 mg/kg/day, ig for 14 days starting from 12th day of immunization by RT-qPCR analysis relative to control; type: functional; details: time 14 day
# Mus musculus [15] = assay: Anti-inflammatory activity against MOG35-55-induced experimental autoimmune encephalomyelitis C57BL/6 mouse model assessed as reduction in serum chemokines level by measuring reduction in FASL level at 0.3 mg/kg/day, ig for 14 days starting from 12th day of immunization by ELISA; type: functional, organism-based; details: time 14.0 day
# Mus musculus [16] = assay: Anti-inflammatory activity against MOG35-55-induced experimental autoimmune encephalomyelitis C57BL/6 mouse model assessed as upregulation of PLP protein expression in brain at 0.15 to 0.3 mg/kg/day, ig for 14 days starting from 12th day of immunization by western blot analysis; type: functional, organism-based; details: dose 0.15-0.3 mg/kg/day, time 14.0 day
# Mus musculus [17] = assay: Anti-inflammatory activity against MOG35-55-induced experimental autoimmune encephalomyelitis C57BL/6 mouse model assessed as fold change in APP gene expression in brain at 0.3 mg/kg/day, ig for 14 days starting from 12th day of immunization by RT-qPCR analysis relative to control; type: functional; details: time 14 day
# Mus musculus [18] = assay: Anti-inflammatory activity against MOG35-55-induced experimental autoimmune encephalomyelitis C57BL/6 mouse model assessed as fold change in BCL2 gene expression in brain at 0.3 mg/kg/day, ig for 14 days starting from 12th day of immunization by RT-qPCR analysis relative to control; type: functional; details: time 14 day
# Mus musculus [19] = assay: Anti-inflammatory activity against MOG35-55-induced experimental autoimmune encephalomyelitis C57BL/6 mouse model assessed as fold change in GFAP gene expression in brain at 0.15 mg/kg/day, ig for 14 days starting from 12th day of immunization by RT-qPCR analysis relative to control; type: functional; details: time 14 day
# Mus musculus [20] = assay: Anti-inflammatory activity against MOG35-55-induced experimental autoimmune encephalomyelitis C57BL/6 mouse model assessed as fold change in GFAP gene expression in brain at 0.3 mg/kg/day, ig for 14 days starting from 12th day of immunization by RT-qPCR analysis relative to control; type: functional; details: time 14 day
# Mus musculus [21] = assay: Anti-inflammatory activity against MOG35-55-induced experimental autoimmune encephalomyelitis C57BL/6 mouse model assessed as reduction in serum chemokines level by measuring reduction in […] level at 0.3 mg/kg/day, ig for 14 days starting from 12th day of immunization by ELISA; type: functional, organism-based; details: time 14.0 day
# Mus musculus [22] = assay: Anti-inflammatory activity against MOG35-55-induced experimental autoimmune encephalomyelitis C57BL/6 mouse model assessed as reduction in serum monokines level by measuring reduction in IL-1B level at 0.3 mg/kg/day, ig for 14 days starting from 12th day of immunization by ELISA; type: functional, organism-based; details: time 14.0 day
# Mus musculus [23] = assay: Anti-inflammatory activity against MOG35-55-induced experimental autoimmune encephalomyelitis C57BL/6 mouse model assessed as fold change in H2EB1 (HLA-DRB1) gene expression in brain at 0.3 mg/kg/day, ig for 14 days starting from 12th day of immunization by RT-qPCR analysis relative to control; type: functional; details: time 14 day
compound,measurement,setting,value
CCCCCCCCCCCCCCCCCCCCCCCCC(=O)O[C@H]1CC[C@]2(C)[C@H]3CC=C4[C@@H]5CC(C)(C)CC[C@]5(CO)CC[C@@]4(C)[C@]3(C)CC[C@H]2C1(C)C,Activity,Mus musculus [1],40.5%
same,fold change (FC),Mus musculus [2],-1.38
same,Activity,Mus musculus [3],Active
same,Activity,Mus musculus [4],Active
same,Activity,[5],5.37 U/ml
same,fold change (FC),Mus musculus [6],2
same,fold change (FC),Mus musculus [7],8.29
same,Activity,Mus musculus [8],Active
same,fold change (FC),Mus musculus [9],2
same,Activity,Mus musculus [10],9.3%
same,fold change (FC),Mus musculus [11],1.76
same,fold change (FC),Mus musculus [12],2.55
CCCCCCCCc1ccc(CCC(N)(CO)CO)cc1 [FINGOLIMOD],Activity,Mus musculus [13],Active
same,fold change (FC),Mus musculus [14],-2.28
same,Activity,Mus musculus [15],Active
same,Activity,Mus musculus [16],inactive
same,fold change (FC),Mus musculus [17],1.72
same,fold change (FC),Mus musculus [18],2.12
same,fold change (FC),Mus musculus [19],2.62
same,fold change (FC),Mus musculus [20],1.92
same,Activity,Mus musculus [21],Active
same,Activity,Mus musculus [22],Active
same,fold change (FC),Mus musculus [23],13.9
